ChEMBL document CHEMBL1141886, “QSAR study on the antibacterial activity of some sulfa drugs: building blockers of Mannich bases” (2005)

How the values were obtained:
Assay type in all cases: functional
[1] = tested on: Bacillus subtilis; assay: Antibacterial activity of compound against Bacillus subtilis at 40 ug/mL expressed as zone of inhibition
[2] = tested on: Bacillus subtilis; assay: Antibacterial activity of compound against Bacillus subtilis at 10 ug/mL expressed as zone of inhibition
[3] = tested on: Bacillus subtilis; assay: Antibacterial activity of compound against Bacillus subtilis at 80 ug/mL expressed as zone of inhibition
[4] = tested on: Escherichia coli; assay: Antibacterial activity of compound against Escherichia coli at 40 ug/mL expressed as zone of inhibition
[5] = tested on: Escherichia coli; assay: Antibacterial activity of compound against Escherichia coli at 80 ug/mL expressed as zone of inhibition
[6] = tested on: Klebsiella pneumoniae; assay: Antibacterial activity of compound against Klebsiella pneumoniae at 80 ug/mL expressed as zone of inhibition
[7] = tested on: Klebsiella pneumoniae; assay: Antibacterial activity of compound against Klebsiella pneumoniae at 40 ug/mL expressed as zone of inhibition
[8] = tested on: Klebsiella pneumoniae; assay: Antibacterial activity of compound against Klebsiella pneumoniae at 10 ug/mL expressed as zone of inhibition
[9] = tested on: Escherichia coli; assay: Antibacterial activity of compound against Escherichia coli at 20 ug/mL expressed as zone of inhibition
[10] = tested on: Klebsiella pneumoniae; assay: Antibacterial activity of compound against Klebsiella pneumoniae at 20 ug/mL expressed as zone of inhibition
[11] = tested on: Escherichia coli; assay: Antibacterial activity of compound against Escherichia coli at 10 ug/mL expressed as zone of inhibition
[12] = tested on: Bacillus subtilis; assay: Antibacterial activity of compound against Bacillus subtilis at 20 ug/mL expressed as zone of inhibition

| SMILES | Zone of inhibition [1] [mm] | Zone of inhibition [2] [mm] | Zone of inhibition [3] [mm] | Zone of inhibition [4] [mm] | Zone of inhibition [5] [mm] | Zone of inhibition [6] [mm] | Zone of inhibition [7] [mm] | Zone of inhibition [8] [mm] | Zone of inhibition [9] [mm] | Zone of inhibition [10] [mm] | Zone of inhibition [11] [mm] | Zone of inhibition [12] [mm] |
| --- | --- | --- | --- | --- | --- | --- | --- | --- | --- | --- | --- | --- |
| Nc1ccc(S(=O)(=O)Nc2ncccn2)cc1 [SULFADIAZINE] | 26.36 | 20.86 | 25.93 | 21.2 | 24.5 | 25.63 | 29.53 | 27.03 | 17.2 | 29.23 | 9.7 | 27.23 |
| N=C(N)NS(=O)(=O)c1ccc(N)cc1 [SULFAGUANIDINE] | 17.9 | 11.23 | 21.76 |  |  |  |  |  |  |  |  | 10.9 |
| Cc1cc(C)nc(NS(=O)(=O)c2ccc(N)cc2)n1 [SULFAMETHAZINE] | 21.76 | 15.4 | 22.08 | 18.8 | 18.56 |  |  |  | 16.9 |  | 15.1 | 19.96 |
| Cc1nnc(NS(=O)(=O)c2ccc(N)cc2)s1 [SULFAMETHIZOLE] | 19.46 | 18.06 | 20.5 | 22.2 | 25.5 | 27.76 | 29.6 | 30.3 | 17.43 | 29.86 | 16.2 | 19.13 |
| Cc1cc(NS(=O)(=O)c2ccc(N)cc2)no1 [SULFAMETHOXAZOLE] | 27.43 | 22.8 | 27.9 | 23.23 | 24.03 | 26.46 | 22.43 | 11.63 | 22.93 | 14.92 | 19.63 | 25.46 |
| Nc1ccc(S(N)(=O)=O)cc1 [SULFANILAMIDE] |  |  |  | 22.86 | 25.55 |  |  |  | 22.3 |  | 20.43 |  |
